ChEMBL document CHEMBL6182931, “Chemical Evolution of Aplithianine Class of Serine/Threonine Kinase Inhibitors” (J Med Chem, 2025)
Calls of active or inactive are those of the source. The calls are words filed in the database; no cut-off is given here.

Legend:
NCI/ADR-RES = test: Antiproliferative activity against human NCI/ADR-RES cells assessed as growth inhibition; type: functional, cell-based
MOLT-4 = test: Antiproliferative activity against human MOLT-4 cells assessed as growth inhibition; type: functional
OVCAR-4 = test: Antiproliferative activity against human OVCAR-4 cells assessed as growth inhibition; type: functional, cell-based
MDA-MB-468 = test: Antiproliferative activity against human MDA-MB-468 cells assessed as growth inhibition; type: functional, cell-based
LOX IMVI = test: Antiproliferative activity against human LOX IMVI cells assessed as growth inhibition; type: functional
[1] = Inhibition of DNAJB1-PKAcalpha (unknown origin) using biotinylated-peptide substrate CREB incubated for 45 mins in presence of ATP and cAMP by ELISA; parameters: species or system Homo sapiens
SR = test: Antiproliferative activity against human SR cells assessed as growth inhibition; type: functional
[2] = Inhibition of DNAJB1-PKAcalpha (unknown origin) overexpressed in mouse NIH/3T3 cells assessed as inhibition of CREB phosphorylation at Ser133 residue preincubated for 30 mins followed by forskolin addition and measured after 30 mins by fluorescence based multilabel reader analysis; type: cell-based; settings: NIH3T3
[3] = molecular target: Dual specificity protein kinase CLK1 (Homo sapiens) (UniProt P49759); test: Inhibition of human CLK1 at 50 nM in presence of ATP by radiometric Hotspot kinase assay relative to control
Dual specificity protein kinase CLK1 (Homo sapiens), sequence (P49759 whole entry, looked up): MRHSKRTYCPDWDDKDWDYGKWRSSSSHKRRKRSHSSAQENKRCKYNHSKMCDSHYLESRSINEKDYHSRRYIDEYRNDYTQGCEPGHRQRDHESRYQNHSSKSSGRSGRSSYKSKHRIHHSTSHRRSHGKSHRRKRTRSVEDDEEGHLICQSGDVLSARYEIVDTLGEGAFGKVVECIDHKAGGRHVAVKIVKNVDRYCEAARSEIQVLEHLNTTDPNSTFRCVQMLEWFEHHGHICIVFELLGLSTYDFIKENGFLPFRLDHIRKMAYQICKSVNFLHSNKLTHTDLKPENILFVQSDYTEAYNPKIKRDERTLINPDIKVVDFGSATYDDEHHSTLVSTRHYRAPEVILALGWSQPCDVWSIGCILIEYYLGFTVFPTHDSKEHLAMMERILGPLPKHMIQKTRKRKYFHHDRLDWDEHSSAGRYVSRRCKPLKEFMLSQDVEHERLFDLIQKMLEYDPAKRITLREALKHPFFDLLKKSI

[4] = molecular target: Dual specificity protein kinase CLK2 (Homo sapiens) (UniProt P49760); test: Inhibition of human CLK2 at 50 nM in presence of ATP by radiometric Hotspot kinase assay relative to control
Dual specificity protein kinase CLK2 (Homo sapiens), sequence (P49760 whole entry, looked up): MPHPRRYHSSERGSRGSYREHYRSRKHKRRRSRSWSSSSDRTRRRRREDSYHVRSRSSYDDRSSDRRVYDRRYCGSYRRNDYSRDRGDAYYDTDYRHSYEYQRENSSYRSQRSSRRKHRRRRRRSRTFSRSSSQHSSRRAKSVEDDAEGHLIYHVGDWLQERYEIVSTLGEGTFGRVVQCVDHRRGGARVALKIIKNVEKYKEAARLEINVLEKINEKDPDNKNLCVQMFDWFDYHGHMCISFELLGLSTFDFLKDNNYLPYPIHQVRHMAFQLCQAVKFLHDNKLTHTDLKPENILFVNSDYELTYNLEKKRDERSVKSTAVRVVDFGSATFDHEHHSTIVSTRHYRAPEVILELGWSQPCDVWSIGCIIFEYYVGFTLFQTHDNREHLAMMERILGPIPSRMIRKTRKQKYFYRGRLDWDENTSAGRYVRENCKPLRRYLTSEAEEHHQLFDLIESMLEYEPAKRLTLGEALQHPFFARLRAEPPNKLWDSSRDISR

[5] = molecular target: T1, Dual specificity tyrosine-phosphorylation-regulated kinase 3 (Homo sapiens) (UniProt O43781); test: Inhibition of human DYRK3 at 50 nM in presence of ATP by radiometric Hotspot kinase assay relative to control
T1 sequence (whole entry): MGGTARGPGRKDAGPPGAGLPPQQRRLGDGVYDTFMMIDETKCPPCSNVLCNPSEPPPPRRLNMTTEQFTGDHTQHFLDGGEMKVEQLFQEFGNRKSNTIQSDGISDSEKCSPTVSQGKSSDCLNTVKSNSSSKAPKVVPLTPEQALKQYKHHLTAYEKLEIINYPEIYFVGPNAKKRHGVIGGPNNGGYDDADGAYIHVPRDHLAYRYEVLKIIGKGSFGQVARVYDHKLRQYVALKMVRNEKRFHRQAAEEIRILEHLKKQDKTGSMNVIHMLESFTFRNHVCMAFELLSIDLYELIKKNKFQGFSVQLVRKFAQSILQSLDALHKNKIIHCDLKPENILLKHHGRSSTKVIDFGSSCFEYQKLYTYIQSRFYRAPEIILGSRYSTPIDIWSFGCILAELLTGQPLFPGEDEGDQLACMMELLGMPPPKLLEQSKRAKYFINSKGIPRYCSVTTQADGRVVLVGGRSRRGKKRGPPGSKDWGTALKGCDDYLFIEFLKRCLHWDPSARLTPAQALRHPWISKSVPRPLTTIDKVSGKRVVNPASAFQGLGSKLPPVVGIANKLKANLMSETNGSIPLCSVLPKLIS

[6] = molecular target: Dual specificity protein kinase CLK3 (Homo sapiens) (UniProt P49761); test: Inhibition of human CLK3 at 50 nM in presence of ATP by radiometric Hotspot kinase assay relative to control
Dual specificity protein kinase CLK3 (Homo sapiens), sequence (P49761 whole entry, looked up): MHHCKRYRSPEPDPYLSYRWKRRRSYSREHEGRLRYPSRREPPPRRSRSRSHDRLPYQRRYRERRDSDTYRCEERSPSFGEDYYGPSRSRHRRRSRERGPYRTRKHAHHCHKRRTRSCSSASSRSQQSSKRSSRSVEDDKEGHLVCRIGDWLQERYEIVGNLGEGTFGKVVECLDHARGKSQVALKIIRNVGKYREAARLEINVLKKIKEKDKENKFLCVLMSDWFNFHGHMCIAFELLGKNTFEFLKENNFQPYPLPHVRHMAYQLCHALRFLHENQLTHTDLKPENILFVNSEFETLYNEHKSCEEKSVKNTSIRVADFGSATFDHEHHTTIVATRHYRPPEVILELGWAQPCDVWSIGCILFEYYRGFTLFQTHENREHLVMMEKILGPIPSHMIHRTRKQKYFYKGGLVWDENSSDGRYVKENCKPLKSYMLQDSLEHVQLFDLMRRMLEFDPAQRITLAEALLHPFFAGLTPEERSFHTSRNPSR

[7] = molecular target: Dual specificity tyrosine-phosphorylation-regulated kinase 1B (Homo sapiens) (UniProt Q9Y463); test: Inhibition of human DYRK1B at 50 nM in presence of ATP by radiometric Hotspot kinase assay relative to control
Dual specificity tyrosine-phosphorylation-regulated kinase 1B (Homo sapiens), sequence (Q9Y463 whole entry, looked up): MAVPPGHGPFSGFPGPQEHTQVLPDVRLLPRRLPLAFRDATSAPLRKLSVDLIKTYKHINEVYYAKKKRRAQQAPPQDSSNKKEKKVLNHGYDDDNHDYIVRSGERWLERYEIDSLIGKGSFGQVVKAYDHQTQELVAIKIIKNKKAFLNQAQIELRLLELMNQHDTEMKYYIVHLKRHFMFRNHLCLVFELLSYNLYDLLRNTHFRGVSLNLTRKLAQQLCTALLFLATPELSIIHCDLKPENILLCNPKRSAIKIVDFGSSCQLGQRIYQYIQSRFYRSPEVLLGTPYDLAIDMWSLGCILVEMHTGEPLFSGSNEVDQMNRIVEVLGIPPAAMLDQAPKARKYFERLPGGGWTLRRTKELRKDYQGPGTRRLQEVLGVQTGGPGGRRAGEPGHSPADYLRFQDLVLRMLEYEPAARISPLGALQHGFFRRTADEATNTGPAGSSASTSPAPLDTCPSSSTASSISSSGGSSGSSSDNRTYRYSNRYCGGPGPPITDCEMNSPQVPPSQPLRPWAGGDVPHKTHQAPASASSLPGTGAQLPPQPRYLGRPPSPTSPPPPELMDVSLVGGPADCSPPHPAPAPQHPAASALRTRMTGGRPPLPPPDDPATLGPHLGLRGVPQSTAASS

[8] = molecular target: Dual specificity tyrosine-phosphorylation-regulated kinase 4 (Homo sapiens) (UniProt Q9NR20); test: Inhibition of human DYRK4 at 50 nM in presence of ATP by radiometric Hotspot kinase assay relative to control
Dual specificity tyrosine-phosphorylation-regulated kinase 4 (Homo sapiens), sequence (Q9NR20 whole entry): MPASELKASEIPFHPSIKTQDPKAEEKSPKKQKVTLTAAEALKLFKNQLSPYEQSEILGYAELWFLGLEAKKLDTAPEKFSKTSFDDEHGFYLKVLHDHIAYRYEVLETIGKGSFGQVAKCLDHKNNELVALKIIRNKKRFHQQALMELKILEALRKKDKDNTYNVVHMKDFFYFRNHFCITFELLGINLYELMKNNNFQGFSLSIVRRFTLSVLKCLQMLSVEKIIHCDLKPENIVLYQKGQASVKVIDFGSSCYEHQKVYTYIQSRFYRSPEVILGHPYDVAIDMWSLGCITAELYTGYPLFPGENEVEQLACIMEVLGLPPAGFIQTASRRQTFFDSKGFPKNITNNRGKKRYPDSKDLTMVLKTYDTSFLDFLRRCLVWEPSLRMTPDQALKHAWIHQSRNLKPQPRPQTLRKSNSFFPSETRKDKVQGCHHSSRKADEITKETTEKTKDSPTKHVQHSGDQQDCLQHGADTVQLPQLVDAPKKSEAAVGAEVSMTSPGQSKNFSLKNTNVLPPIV

[9] = molecular target: T2, Dual specificity tyrosine-phosphorylation-regulated kinase 2 (Homo sapiens) (UniProt Q92630); test: Inhibition of human DYRK2 at 50 nM in presence of ATP by radiometric Hotspot kinase assay relative to control
T2 sequence (whole entry): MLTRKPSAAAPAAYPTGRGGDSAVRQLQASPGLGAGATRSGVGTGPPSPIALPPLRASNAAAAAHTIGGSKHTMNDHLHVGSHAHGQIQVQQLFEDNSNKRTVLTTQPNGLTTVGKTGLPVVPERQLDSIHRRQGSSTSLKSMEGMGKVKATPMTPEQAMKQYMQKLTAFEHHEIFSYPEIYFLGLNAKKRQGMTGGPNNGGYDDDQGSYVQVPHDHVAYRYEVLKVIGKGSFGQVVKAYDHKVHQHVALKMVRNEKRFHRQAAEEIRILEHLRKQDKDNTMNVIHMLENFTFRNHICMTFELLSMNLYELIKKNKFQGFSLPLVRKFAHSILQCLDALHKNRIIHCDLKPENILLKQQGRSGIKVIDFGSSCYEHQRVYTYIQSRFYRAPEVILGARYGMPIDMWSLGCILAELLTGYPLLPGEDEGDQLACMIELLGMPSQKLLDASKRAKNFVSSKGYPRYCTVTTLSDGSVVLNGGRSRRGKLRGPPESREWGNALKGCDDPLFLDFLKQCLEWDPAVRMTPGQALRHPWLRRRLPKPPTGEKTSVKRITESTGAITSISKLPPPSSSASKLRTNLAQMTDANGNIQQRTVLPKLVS

[10] = molecular target: cAMP-dependent protein kinase catalytic subunit beta (Homo sapiens) (UniProt P22694); test: Inhibition of human PKAbeta at 50 nM in presence of ATP by radiometric Hotspot kinase assay
[11] = molecular target: T3, cGMP-dependent protein kinase 1 (Homo sapiens) (UniProt Q13976); settings: dose 50.0 nM
T3 sequence (whole entry): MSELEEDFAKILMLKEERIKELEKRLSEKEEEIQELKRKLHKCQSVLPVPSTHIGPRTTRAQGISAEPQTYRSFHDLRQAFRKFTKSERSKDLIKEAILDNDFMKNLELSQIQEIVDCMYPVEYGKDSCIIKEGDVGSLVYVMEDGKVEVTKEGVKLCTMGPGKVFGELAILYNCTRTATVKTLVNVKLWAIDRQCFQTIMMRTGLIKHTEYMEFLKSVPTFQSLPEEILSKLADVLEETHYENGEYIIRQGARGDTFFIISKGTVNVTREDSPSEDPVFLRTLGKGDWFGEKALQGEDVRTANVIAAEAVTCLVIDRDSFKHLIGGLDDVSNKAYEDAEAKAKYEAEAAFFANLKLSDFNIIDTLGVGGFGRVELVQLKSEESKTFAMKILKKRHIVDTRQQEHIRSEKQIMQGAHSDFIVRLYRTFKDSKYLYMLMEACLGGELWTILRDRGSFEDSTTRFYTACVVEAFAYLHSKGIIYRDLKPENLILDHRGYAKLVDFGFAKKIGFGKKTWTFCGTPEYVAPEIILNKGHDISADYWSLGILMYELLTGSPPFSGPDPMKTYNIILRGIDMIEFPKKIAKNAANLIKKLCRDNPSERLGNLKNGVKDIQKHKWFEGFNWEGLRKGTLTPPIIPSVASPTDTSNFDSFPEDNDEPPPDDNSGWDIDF
Description: Inhibition of human PKG1alpha at 50 nM in presence of ATP by radiometric Hotspot kinase assay

[12] = molecular target: Dual specificity protein kinase CLK4 (Homo sapiens) (UniProt Q9HAZ1); test: Inhibition of human CLK4 at 50 nM in presence of ATP by radiometric Hotspot kinase assay relative to control
Dual specificity protein kinase CLK4 (Homo sapiens), sequence (Q9HAZ1 whole entry, looked up): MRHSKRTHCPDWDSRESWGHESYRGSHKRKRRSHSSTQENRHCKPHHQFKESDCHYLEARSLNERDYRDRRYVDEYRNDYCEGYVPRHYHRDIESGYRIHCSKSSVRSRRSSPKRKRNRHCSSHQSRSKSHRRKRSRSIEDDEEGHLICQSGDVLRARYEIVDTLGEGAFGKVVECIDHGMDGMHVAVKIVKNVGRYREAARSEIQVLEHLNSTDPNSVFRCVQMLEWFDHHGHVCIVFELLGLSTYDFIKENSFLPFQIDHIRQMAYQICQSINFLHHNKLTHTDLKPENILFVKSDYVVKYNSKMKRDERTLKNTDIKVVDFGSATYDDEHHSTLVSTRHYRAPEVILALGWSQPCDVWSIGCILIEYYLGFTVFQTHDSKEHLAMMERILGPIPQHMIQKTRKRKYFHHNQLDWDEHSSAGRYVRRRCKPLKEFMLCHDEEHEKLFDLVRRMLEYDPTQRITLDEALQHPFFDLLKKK

[13] = molecular target: Dual specificity tyrosine-phosphorylation-regulated kinase 1A (Homo sapiens) (UniProt Q13627); test: Inhibition of human DYRK1A at 50 nM in presence of ATP by radiometric Hotspot kinase assay relative to control
[14] = molecular target: cAMP-dependent protein kinase catalytic subunit alpha (Homo sapiens) (UniProt P17612); settings: dose 50.0 nM
Description: Inhibition of human PKAalpha at 50 nM in presence of ATP by radiometric Hotspot kinase assay relative to control

Homo sapiens [15] = species: Homo sapiens; test: Induction of thermal stabilization of His-tagged DNAJB1-PKAcalpha (unknown origin) assessed as change in melting temperature incubated for 15 min by differential scanning fluorometric analysis
Homo sapiens [16] = species: Homo sapiens; test: Induction of thermal stabilization of His-tagged DNAJB1-PKAcalpha (unknown origin) incubated for 15 min by differential scanning fluorometric analysis
Albumin = Albumin (Homo sapiens, UniProt P02768); test: Binding affinity to human serum albumin assessed as protein binding at 10 uM by equilibrium dialysis technique relative to control; type: ADME; settings: isolated protein
Albumin, sequence (P02768 whole entry): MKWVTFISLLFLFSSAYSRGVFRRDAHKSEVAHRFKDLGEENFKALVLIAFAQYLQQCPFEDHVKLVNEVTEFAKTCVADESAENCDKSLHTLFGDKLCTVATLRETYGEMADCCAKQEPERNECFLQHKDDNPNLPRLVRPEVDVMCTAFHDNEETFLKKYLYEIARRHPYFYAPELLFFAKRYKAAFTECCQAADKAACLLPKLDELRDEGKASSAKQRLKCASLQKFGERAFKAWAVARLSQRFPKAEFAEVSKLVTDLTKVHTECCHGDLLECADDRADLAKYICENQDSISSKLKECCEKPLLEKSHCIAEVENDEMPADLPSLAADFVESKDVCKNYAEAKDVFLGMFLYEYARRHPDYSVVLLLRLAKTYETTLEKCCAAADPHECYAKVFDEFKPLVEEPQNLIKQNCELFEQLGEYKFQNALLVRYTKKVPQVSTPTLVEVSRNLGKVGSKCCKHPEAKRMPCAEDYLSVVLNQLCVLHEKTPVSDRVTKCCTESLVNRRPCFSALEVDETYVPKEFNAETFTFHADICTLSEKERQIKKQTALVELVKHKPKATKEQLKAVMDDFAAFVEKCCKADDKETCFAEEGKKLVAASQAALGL

Compound	Activity (NCI/ADR-RES)	Activity (MOLT-4)	Activity (OVCAR-4)	Activity (MDA-MB-468)	GI50 (LOX IMVI) [nM]	IC50 [1] [nM]	Activity (SR)	IC50 [2] [nM]	also measured
Cc1c[nH]c2ncnc(N3C=C(c4cncn4C)SCC3)c12	inactive	Active	inactive	Active	> 1000	92	Active	8200	
Cc1cc(N2C=C(c3ccnc4[nH]ccc34)SCC2)ncn1	inactive	Active	inactive	Active	> 1000	200	Active		
C1=C(c2ccnc3[nH]ccc23)SCCN1c1ncnc2occc12	inactive	Active	inactive	Active	> 1000	19	Active		
C1=C(c2ccnc3[nH]ccc23)SCCN1c1ncnc2[nH]ccc12	inactive	Active	inactive	Active	> 1000		Active		inhibition [3]: < 50%; inhibition [4]: < 50%; inhibition [5]: < 50%; inhibition [6]: < 50%; inhibition [7]: < 50%; inhibition [8]: < 50%; inhibition [9]: < 50%; inhibition [10]: Active; inhibition [11]: Active; inhibition [12]: < 50%; inhibition [13]: < 50%
Cn1cncc1C1=CN(c2ccnc3[nH]ccc23)CCS1	inactive	Active	inactive	Active	> 1000	860	Active		inhibition [3]: Active; inhibition [14]: 1.7%; inhibition [11]: Active
Cn1cnc(Br)c1C1=CN(c2ncnc3[nH]cnc23)CCS1	inactive	Active	inactive	Active	> 1000		Active		ΔTm (Homo sapiens [15]): 3.1 °C; Activity (Homo sapiens [16]): Dose-dependent-effect
Cn1cncc1N1C=C(c2ccnc3[nH]ccc23)SCC1	inactive	Active	inactive	Active	> 1000	25	Active	5560	inhibition [3]: < 50%; inhibition [4]: < 50%; inhibition [5]: < 50%; ΔTm (Homo sapiens [15]): 6 °C; inhibition [6]: < 50%; inhibition [14]: 47%; inhibition [7]: < 50%; inhibition [8]: < 50%; Activity (Homo sapiens [16]): Dose-dependent-effect; inhibition [9]: < 50%; inhibition [10]: Active; inhibition [11]: Active; inhibition [12]: < 50%; inhibition [13]: < 50%
C[C@@]1(N)CCCN(C(=O)C2=CN(c3ncnc4[nH]ccc34)CCS2)C1	inactive	Active	inactive	Active	> 1000		Active	4400	
C[C@@]1(N)CCCN(C(=O)C2=CN(c3ccnc4[nH]ccc34)CCS2)C1						16		3600	
C[C@@H]1C[C@@H](N)CN(C(=O)C2=CN(c3ncnc4[nH]ccc34)CCS2)C1	inactive	Active	inactive	Active	> 1000	6	Active	2700	
Cn1cncc1C1=CN(c2ncnc3[nH]cnc23)CCS1									inhibition [3]: Active; inhibition [4]: Active; inhibition [10]: Active; PB (Albumin): 98%
C1=C(c2ccnc3[nH]ccc23)SCCN1c1ncnc2sccc12	inactive	Active	inactive	Active	> 1000	310	Active		
Cn1cncc1C1=CN(c2ncnc3[nH]ccc23)CCS1	inactive	Active	inactive	Active	> 1000	150	Active	> 10000	
C[C@H]1CCN(C(=O)C2=CN(c3ncnc4[nH]ccc34)CCS2)C[C@@H]1N						7		2500	
Cn1cc(C2=CN(c3ncnc4[nH]ccc34)CCS2)cn1	inactive	Active	inactive	Active	> 1000	440	Active		
C1=C(c2ccnc3[nH]ccc23)SCCN1c1ccncn1	inactive	Active	inactive	Active	> 1000	6.3	Active	282	ΔTm (Homo sapiens [15]): 7.9 °C; Activity (Homo sapiens [16]): Dose-dependent-effect
